Test results reported in US10441562B2, “Aromatic farnesyl compound and application thereof” (INSTITUTE OF MICROBIOLOGY, CHINESE ACADEMY OF SCIENCES, priority 2015, dated 2019).
Marks after values point to notes of the source that are not given here.

Legend:
[1] = system: hyperglycemia KK-A^y mice; experiment: blood lipid and liver function of hyperglycemia KK-A^y mice; format: in vivo; settings: 3 weeks
Protocol: Materials: accurately weigh the 2 compounds S13 and S28 discussed in example 2, and then add 0.5% CMC-Na to make the solution of 5 mg/ml used for activity test. KK-A^y mice are purchased from Chinese Academy of Medical Sciences & Peking Union Medical College Institute of Animal Studies. Experiments are carried out after adapting to the environment (T=20-24° C., constant humidity: 50-60%, 12 hours light exposure (8:00-20:00), soundproof, free feeding and drinking) for 1 week. Glucometer is purchased from Roche.
Methods: 10 male C57 mice of 6-8 weeks of 20-22 g are used as normal control group (1). Detect the fasting glucose of male KK-A^y mice, which are 6-8 weeks with the weight of 28-32 g, and divide them into different groups according to the blood sugar level and body weight: (2) model control group, (3) which is administered by compound S13 with the dose of 1 mg/kg, (4) which is administered by compound S13 with the dose of 5 mg/kg, (5) which is administered by compound S13 with the dose of 10 mg/kg, (6) which is administered by compound S13 with the dose of 20 mg/kg, (7) which is administered by compound S28 with the dose of 1 mg/kg, (8) which is administered by compound S28 with the dose of 5 mg/kg, (9) which is administered by compound S28 with the dose of 10 mg/kg, (10) which is administered by compound S28 with the dose of 20 mg/kg, (11) which is administered by metformin with the dose of 8 g/kg, (12) which is administered by compound S13 with the dose of 2.5 mg/kg and metformin with the dose of 4 g/kg, (13) which is administered by compound S13 with the dose of 5 mg/kg and metformin with the dose of 4 g/kg, (14) which is administered by compound S28 with the dose of 2.5 mg/kg and metformin with the dose of […], (15) which is administered by compound S28 with the dose of 5 mg/kg and metformin with the dose of […]. Each group has 8 mice, and is administrated successively for 3 weeks. Model control group is given with equal amounts of 0.5% CMC-Na.
4) After the last administration, the mice are executed under anesthesia, and blood is taken to be centrifuged at 3000 rpm in 4[…]. Serum total cholesterol, low density lipoprotein and triglyceride TG are detected.

[2] = biological target: T1, α-glucosidase (Saccharomyces cerevisiae, UniProt P53341); experiment: α-glucosidase inhibitory activity test in vitro; format: biochemical; settings: read-out: α-glucosidase inhibitory activity (IC50)
T1 construct: purchased Sigma Corporation G5003
T1 sequence (P53341 whole entry): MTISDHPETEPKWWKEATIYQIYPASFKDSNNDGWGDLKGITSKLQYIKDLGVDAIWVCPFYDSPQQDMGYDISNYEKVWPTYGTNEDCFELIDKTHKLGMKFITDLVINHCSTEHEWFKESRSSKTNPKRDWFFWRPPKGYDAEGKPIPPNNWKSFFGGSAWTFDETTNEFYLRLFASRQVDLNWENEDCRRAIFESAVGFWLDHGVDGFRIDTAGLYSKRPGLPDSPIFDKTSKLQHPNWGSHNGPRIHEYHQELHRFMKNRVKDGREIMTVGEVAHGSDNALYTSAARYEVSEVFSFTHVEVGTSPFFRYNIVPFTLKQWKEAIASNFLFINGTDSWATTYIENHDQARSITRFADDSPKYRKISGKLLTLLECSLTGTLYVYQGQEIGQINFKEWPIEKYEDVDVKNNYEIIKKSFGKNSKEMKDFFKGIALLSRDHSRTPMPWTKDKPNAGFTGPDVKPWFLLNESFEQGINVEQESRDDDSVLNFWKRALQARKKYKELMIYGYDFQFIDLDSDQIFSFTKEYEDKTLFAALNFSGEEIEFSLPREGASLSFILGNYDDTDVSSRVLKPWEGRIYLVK

[3] = system: hyperglycemia KK-A^y mice; experiment: glucose tolerance test (OGTT) in hyperglycemia KK-A^y mice; format: in vivo; settings: OGTT 12th day, glucose 2.0 g/kg oral
Protocol: KK-A^y mice are purchased from Chinese Academy of Medical Sciences & Peking Union Medical College Institute of Animal Studies. Experiments are carried out after adapting to the environment (T=20-24° C., constant humidity: 50-60%, 12 hours light exposure (8:00-20:00), soundproof, free feeding and drinking) for 1 week. Glucometer is purchased from Roche.
Each group has 8 mice, and is administrated successively for 3 weeks. Model control group is given with equal amounts of 0.5% CMC-Na.
3) Glucose tolerance test (OGTT): glucose tolerance is detected at the 12th day after administration. The mice are fasted for 12 hours and blood is collected (0 h). After being given with glucose (2.0 g/kg) by oral administration, blood is collected from tip of tail to detect the blood sugar level after 30 min, 60 min and 120 min respectively (see table 11).

For `CC(C)=CCC/C(C)=C/CCC1=C[C@H](c2cc(O)ccc2O)OC1=O` [S13, (R,E)-5-(2,5-dihydroxyphenyl)-3-(4,8-dimethylnona-3,7-dien-1-yl)furan-2(5H)-one], the ALT ([1]; 1 mg/kg, groups 3, 7) was 72.1** U/L, the AST ([1]; 1 mg/kg, groups 3, 7) was 56.2** U/L and the HDL-C ([1]; 1 mg/kg, groups 3, 7) was 22.4 mg/dL. For the same molecule, the LDL-C ([1]; 1 mg/kg, groups 3, 7) was 64* mg/dL, the SOD ([1]; 1 mg/kg, groups 3, 7) was 5.01** U/L and the TC ([1]; 1 mg/kg, groups 3, 7) was 132** mg/dL. The TG ([1]; 1 mg/kg, groups 3, 7) was 328** mg/dL, the ALT ([1]; 5 mg/kg, groups 4, 8) was 72.8** U/L and the AST ([1]; 5 mg/kg, groups 4, 8) was 63.5** U/L. For the same molecule, the HDL-C ([1]; 5 mg/kg, groups 4, 8) was 22.4 mg/dL, the LDL-C ([1]; 5 mg/kg, groups 4, 8) was 64** mg/dL and the SOD ([1]; 5 mg/kg, groups 4, 8) was 4.24* U/L. The TC ([1]; 5 mg/kg, groups 4, 8) was 134** mg/dL, the TG ([1]; 5 mg/kg, groups 4, 8) was 310** mg/dL and the ALT ([1]; 10 mg/kg, groups 5, 9) was 67.1** U/L. The AST ([1]; 10 mg/kg, groups 5, 9) was 60.8** U/L, the HDL-C ([1]; 10 mg/kg, groups 5, 9) was 22.5 mg/dL and the LDL-C ([1]; 10 mg/kg, groups 5, 9) was 64** mg/dL. The SOD ([1]; 10 mg/kg, groups 5, 9) was 4.11** U/L, the TC ([1]; 10 mg/kg, groups 5, 9) was 131** mg/dL and the TG ([1]; 10 mg/kg, groups 5, 9) was 327** mg/dL. The ALT ([1]; 20 mg/kg, groups 6, 10) was 61.2** U/L, the AST ([1]; 20 mg/kg, groups 6, 10) was 60.5** U/L and the HDL-C ([1]; 20 mg/kg, groups 6, 10) was 22.1 mg/dL. For the same molecule, the LDL-C ([1]; 20 mg/kg, groups 6, 10) was 53** mg/dL, the SOD ([1]; 20 mg/kg, groups 6, 10) was 4.52** U/L and the TC ([1]; 20 mg/kg, groups 6, 10) was 125** mg/dL. For the same molecule, the TG ([1]; 20 mg/kg, groups 6, 10) was 310** mg/dL, the IC50 [2] was 0.27 µM and the “glucose tolerance, blood sugar 0 min” value ([3]; 1 mg/kg, groups 3, 7) was 9.6. The “glucose tolerance, blood sugar 0 min” value ([3]; 5 mg/kg, groups 4, 8) was 6.9*, the “glucose tolerance, blood sugar 0 min” value ([3]; 10 mg/kg, groups 5, 9) was 7.96 and the “glucose tolerance, blood sugar 0 min” value ([3]; 20 mg/kg, groups 6, 10) was 6.90*. For the same molecule, the “glucose tolerance, blood sugar 30 min” value ([3]; 1 mg/kg, groups 3, 7) was 12.5**, the “glucose tolerance, blood sugar 30 min” value ([3]; 5 mg/kg, groups 4, 8) was 9.1** and the “glucose tolerance, blood sugar 30 min” value ([3]; 10 mg/kg, groups 5, 9) was 16.95**. The “glucose tolerance, blood sugar 30 min” value ([3]; 20 mg/kg, groups 6, 10) was 14.00**, the “glucose tolerance, blood sugar 60 min” value ([3]; 1 mg/kg, groups 3, 7) was 10.2** and the “glucose tolerance, blood sugar 60 min” value ([3]; 5 mg/kg, groups 4, 8) was 9.1**. The “glucose tolerance, blood sugar 60 min” value ([3]; 10 mg/kg, groups 5, 9) was 13.20**, the “glucose tolerance, blood sugar 60 min” value ([3]; 20 mg/kg, groups 6, 10) was 12.45** and the “glucose tolerance, blood sugar 120 min” value ([3]; 1 mg/kg, groups 3, 7) was 8.2**. The “glucose tolerance, blood sugar 120 min” value ([3]; 5 mg/kg, groups 4, 8) was 5.2**, the “glucose tolerance, blood sugar 120 min” value ([3]; 10 mg/kg, groups 5, 9) was 10.93** and the “glucose tolerance, blood sugar 120 min” value ([3]; 20 mg/kg, groups 6, 10) was 11.90**.
With `CC(C)=CCC/C(C)=C/CCC1=C[C@@H](c2cc(O)ccc2O)OC1=O` [S28, (S,E)-5-(2,5-dihydroxyphenyl)-3-(4,8-dimethylnona-3,7-dien-1-yl)furan-2(5H)-one] the ALT ([1]; 1 mg/kg, groups 3, 7) was 72.5** U/L, the AST ([1]; 1 mg/kg, groups 3, 7) was 56.5** U/L and the HDL-C ([1]; 1 mg/kg, groups 3, 7) was 22.1 mg/dL. For the same molecule, the LDL-C ([1]; 1 mg/kg, groups 3, 7) was 64** mg/dL, the SOD ([1]; 1 mg/kg, groups 3, 7) was 5.12** U/L and the TC ([1]; 1 mg/kg, groups 3, 7) was 134** mg/dL. The TG ([1]; 1 mg/kg, groups 3, 7) was 325** mg/dL, the ALT ([1]; 5 mg/kg, groups 4, 8) was 71.2** U/L and the AST ([1]; 5 mg/kg, groups 4, 8) was 63.6** U/L. The HDL-C ([1]; 5 mg/kg, groups 4, 8) was 22.3 mg/dL, the LDL-C ([1]; 5 mg/kg, groups 4, 8) was 69* mg/dL and the SOD ([1]; 5 mg/kg, groups 4, 8) was 4.25* U/L. For the same molecule, the TC ([1]; 5 mg/kg, groups 4, 8) was 134** mg/dL, the TG ([1]; 5 mg/kg, groups 4, 8) was 312** mg/dL and the ALT ([1]; 10 mg/kg, groups 5, 9) was 62.5** U/L. The AST ([1]; 10 mg/kg, groups 5, 9) was 60.6** U/L, the HDL-C ([1]; 10 mg/kg, groups 5, 9) was 22.5 mg/dL and the LDL-C ([1]; 10 mg/kg, groups 5, 9) was 69* mg/dL. The SOD ([1]; 10 mg/kg, groups 5, 9) was 4.12* U/L, the TC ([1]; 10 mg/kg, groups 5, 9) was 135** mg/dL and the TG ([1]; 10 mg/kg, groups 5, 9) was 331** mg/dL. For the same molecule, the ALT ([1]; 20 mg/kg, groups 6, 10) was 61.5** U/L, the AST ([1]; 20 mg/kg, groups 6, 10) was 60.6** U/L and the HDL-C ([1]; 20 mg/kg, groups 6, 10) was 22.4 mg/dL. The LDL-C ([1]; 20 mg/kg, groups 6, 10) was 54** mg/dL, the SOD ([1]; 20 mg/kg, groups 6, 10) was 4.34* U/L and the TC ([1]; 20 mg/kg, groups 6, 10) was 123** mg/dL. The TG ([1]; 20 mg/kg, groups 6, 10) was 312** mg/dL, the IC50 [2] was 0.42 µM and the “glucose tolerance, blood sugar 0 min” value ([3]; 1 mg/kg, groups 3, 7) was 9.5. The “glucose tolerance, blood sugar 0 min” value ([3]; 5 mg/kg, groups 4, 8) was 6.8**, the “glucose tolerance, blood sugar 0 min” value ([3]; 10 mg/kg, groups 5, 9) was 7.6* and the “glucose tolerance, blood sugar 0 min” value ([3]; 20 mg/kg, groups 6, 10) was 6.9**. The “glucose tolerance, blood sugar 30 min” value ([3]; 1 mg/kg, groups 3, 7) was 11.3**, the “glucose tolerance, blood sugar 30 min” value ([3]; 5 mg/kg, groups 4, 8) was 9.3** and the “glucose tolerance, blood sugar 30 min” value ([3]; 10 mg/kg, groups 5, 9) was 16.9**. For the same molecule, the “glucose tolerance, blood sugar 30 min” value ([3]; 20 mg/kg, groups 6, 10) was 14.3**, the “glucose tolerance, blood sugar 60 min” value ([3]; 1 mg/kg, groups 3, 7) was 10.5** and the “glucose tolerance, blood sugar 60 min” value ([3]; 5 mg/kg, groups 4, 8) was 9.3**. For the same molecule, the “glucose tolerance, blood sugar 60 min” value ([3]; 10 mg/kg, groups 5, 9) was 13.2**, the “glucose tolerance, blood sugar 60 min” value ([3]; 20 mg/kg, groups 6, 10) was 12.4** and the “glucose tolerance, blood sugar 120 min” value ([3]; 1 mg/kg, groups 3, 7) was 8.3**. For the same molecule, the “glucose tolerance, blood sugar 120 min” value ([3]; 5 mg/kg, groups 4, 8) was 5.1**, the “glucose tolerance, blood sugar 120 min” value ([3]; 10 mg/kg, groups 5, 9) was 10.9** and the “glucose tolerance, blood sugar 120 min” value ([3]; 20 mg/kg, groups 6, 10) was 11.9**.
